Experiment [1] deals with T47D cells. Put plainly: Clonogenic survival assay, T47D. The experiment is classed as cell-based, human. The note with it: IC50, 2 x IC50, 4 x IC50 for 24 h. As for the experimental part: Cells were pre-cultured and treated with the indicated concentrations of MMV652103 for 24 h, washed, collected and re-plated, in drug-free medium, at 1000-2000 cells per well in 35 mm dishes, in triplicate. After 10-21 days the surviving cells were fixed with 3:1 methanol: acetic acid and stained with 0.5 % crystal violet (Sigma-Aldrich, USA) in 100 % methanol. Quantification of colonies was performed using ImageJ 1.5J8 software (USA) (Schneider et al., 2012[73]). Number of colonies was determined for each drug concentration and expressed as a percentage of the vehicle treated control.

The target of experiment [2] is T1, PIK3C2A (Homo sapiens, UniProt O00443).
T1 construct: purchased Carna Biosciences Inc; Invitrogen Corporation
T1 sequence (O00443 whole entry): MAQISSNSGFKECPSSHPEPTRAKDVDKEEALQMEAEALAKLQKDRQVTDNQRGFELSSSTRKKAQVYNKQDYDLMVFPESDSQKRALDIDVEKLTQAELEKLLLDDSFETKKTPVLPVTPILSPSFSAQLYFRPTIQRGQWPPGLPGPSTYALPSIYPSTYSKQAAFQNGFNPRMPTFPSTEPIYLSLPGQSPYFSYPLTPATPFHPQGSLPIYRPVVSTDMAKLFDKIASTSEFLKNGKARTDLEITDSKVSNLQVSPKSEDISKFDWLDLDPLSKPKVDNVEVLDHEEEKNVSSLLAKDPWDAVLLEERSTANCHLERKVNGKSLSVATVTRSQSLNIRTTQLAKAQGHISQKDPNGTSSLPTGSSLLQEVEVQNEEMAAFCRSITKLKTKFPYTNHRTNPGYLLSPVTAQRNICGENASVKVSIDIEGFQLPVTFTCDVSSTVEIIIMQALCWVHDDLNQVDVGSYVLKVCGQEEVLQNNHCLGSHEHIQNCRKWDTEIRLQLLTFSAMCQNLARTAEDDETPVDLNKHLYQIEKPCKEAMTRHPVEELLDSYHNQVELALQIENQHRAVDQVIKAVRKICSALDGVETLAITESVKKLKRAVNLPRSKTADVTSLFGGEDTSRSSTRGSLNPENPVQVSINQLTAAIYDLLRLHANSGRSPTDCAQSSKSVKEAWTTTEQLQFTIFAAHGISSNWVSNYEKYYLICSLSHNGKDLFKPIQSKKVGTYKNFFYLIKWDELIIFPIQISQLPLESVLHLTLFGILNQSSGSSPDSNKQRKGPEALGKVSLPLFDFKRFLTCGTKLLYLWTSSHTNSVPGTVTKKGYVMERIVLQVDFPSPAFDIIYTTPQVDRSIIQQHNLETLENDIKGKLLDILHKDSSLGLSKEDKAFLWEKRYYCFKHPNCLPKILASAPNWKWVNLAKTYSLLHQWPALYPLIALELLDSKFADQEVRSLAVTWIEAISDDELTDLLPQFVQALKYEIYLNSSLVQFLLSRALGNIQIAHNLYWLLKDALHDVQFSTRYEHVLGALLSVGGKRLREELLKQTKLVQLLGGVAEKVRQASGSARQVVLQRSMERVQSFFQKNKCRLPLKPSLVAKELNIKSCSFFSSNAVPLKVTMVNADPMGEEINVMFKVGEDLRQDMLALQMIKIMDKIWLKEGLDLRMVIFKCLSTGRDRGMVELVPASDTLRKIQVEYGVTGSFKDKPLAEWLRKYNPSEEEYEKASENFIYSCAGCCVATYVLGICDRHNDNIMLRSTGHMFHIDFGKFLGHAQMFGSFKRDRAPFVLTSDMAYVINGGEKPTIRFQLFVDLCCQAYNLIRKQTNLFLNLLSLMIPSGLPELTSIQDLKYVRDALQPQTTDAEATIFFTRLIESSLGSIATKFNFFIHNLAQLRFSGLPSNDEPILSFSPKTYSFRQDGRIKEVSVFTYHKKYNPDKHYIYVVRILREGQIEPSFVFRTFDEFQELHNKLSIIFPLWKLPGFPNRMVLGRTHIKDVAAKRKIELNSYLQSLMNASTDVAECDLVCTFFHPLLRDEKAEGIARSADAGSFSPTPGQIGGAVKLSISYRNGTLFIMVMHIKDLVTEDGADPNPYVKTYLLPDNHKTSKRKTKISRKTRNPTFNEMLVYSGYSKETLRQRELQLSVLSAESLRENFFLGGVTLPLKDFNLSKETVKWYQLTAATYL
Put plainly: ADP-Glo lipid kinase assay, PIK3C2A. The experiment is classed as biochemical. The note with it: 10 µM compound.

Experiment [3] deals with MCF7 (breast cancer cell line). The experiment is described as follows: MTT cytotoxicity assay, MCF7. The note with it: for IC50: Homo sapiens. The experiment is classed as cell-based, human. The source says:
Human estrogen-receptor positive (ER+) breast adenocarcinoma cell lines, MCF7 and T47D, were maintained in Roswell Park Memorial Institute-1640 medium (Sigma Aldrich, Missouri, USA) and the human epidermal growth factor receptor 2 positive (HER2+) BT474, and triple negative (TNBC) MDA-MB-231 and MDA-MB-468 cells were maintained in Dulbecco's Modified Eagle's Medium (DMEM) (Sigma Aldrich, Missouri, USA). FG0 human skin fibroblasts (provided by Associate Professor Denver Hendricks, University of Cape Town) were maintained in DMEM while the normal breast epithelial cell line MCF12A was maintained in DMEM:nutrient mixture F-12 (DMEM/F12; 1:1; Sigma Aldrich, Missouri, USA), supplemented with 20 ng/ml epidermal growth factor, 100 ng/ml cholera toxin, 500 ng/ml hydrocortisone and 10 µg/ml insulin. All media were supplemented with 10 % fetal bovine serum, 100 U/ml penicillin and 100 µg/ml streptomycin. Cells were maintained at 37 °C in a 5 % CO2 and 95 % air-humidified incubator. Media was replaced every 2-3 days and cells were routinely tested for mycoplasma infection.
Cells (3.5×10^3-6×10^3 / well) were seeded in 96-well plates and treated at a 60-70 % confluence with a range of concentrations (0-10 μM) of test compounds or vehicle for 48 h. Cell viability was measured using the 3-(4,5-dimethylthiazol-2-yl)-2,5-diphenyl-trazolium bromide (MTT) assay (11465007001; Sigma Aldrich) according to the manufacturer's instructions. Mean cell viability was calculated as a percentage of the mean vehicle control. A minimum of three independent experiments in quadruplicate were performed from which the IC50 was determined from sigmoidal plots using GraphPad Prism version 6.0 (GraphPad Software, California, USA). The selectivity index (SI) was determined by dividing the IC50 of a non-malignant cell line by the IC50 of a cancer cell line.
Briefly, the cells were treated with a range of concentrations (2 - 20 µM) of each compound or vehicle (DMSO) for 48 h and MTT assays were performed. […] Based on the promising IC50 and SI values obtained for MMV652103, it was chosen for further studies.
On the technique in general: Tetrazolium dyes change colour on reduction, which living cells bring about.

Experiment [4] deals with T2, PIK3CG (Homo sapiens, UniProt P48736).
T2 construct: purchased Carna Biosciences Inc; Invitrogen Corporation
T2 sequence (P48736 whole entry): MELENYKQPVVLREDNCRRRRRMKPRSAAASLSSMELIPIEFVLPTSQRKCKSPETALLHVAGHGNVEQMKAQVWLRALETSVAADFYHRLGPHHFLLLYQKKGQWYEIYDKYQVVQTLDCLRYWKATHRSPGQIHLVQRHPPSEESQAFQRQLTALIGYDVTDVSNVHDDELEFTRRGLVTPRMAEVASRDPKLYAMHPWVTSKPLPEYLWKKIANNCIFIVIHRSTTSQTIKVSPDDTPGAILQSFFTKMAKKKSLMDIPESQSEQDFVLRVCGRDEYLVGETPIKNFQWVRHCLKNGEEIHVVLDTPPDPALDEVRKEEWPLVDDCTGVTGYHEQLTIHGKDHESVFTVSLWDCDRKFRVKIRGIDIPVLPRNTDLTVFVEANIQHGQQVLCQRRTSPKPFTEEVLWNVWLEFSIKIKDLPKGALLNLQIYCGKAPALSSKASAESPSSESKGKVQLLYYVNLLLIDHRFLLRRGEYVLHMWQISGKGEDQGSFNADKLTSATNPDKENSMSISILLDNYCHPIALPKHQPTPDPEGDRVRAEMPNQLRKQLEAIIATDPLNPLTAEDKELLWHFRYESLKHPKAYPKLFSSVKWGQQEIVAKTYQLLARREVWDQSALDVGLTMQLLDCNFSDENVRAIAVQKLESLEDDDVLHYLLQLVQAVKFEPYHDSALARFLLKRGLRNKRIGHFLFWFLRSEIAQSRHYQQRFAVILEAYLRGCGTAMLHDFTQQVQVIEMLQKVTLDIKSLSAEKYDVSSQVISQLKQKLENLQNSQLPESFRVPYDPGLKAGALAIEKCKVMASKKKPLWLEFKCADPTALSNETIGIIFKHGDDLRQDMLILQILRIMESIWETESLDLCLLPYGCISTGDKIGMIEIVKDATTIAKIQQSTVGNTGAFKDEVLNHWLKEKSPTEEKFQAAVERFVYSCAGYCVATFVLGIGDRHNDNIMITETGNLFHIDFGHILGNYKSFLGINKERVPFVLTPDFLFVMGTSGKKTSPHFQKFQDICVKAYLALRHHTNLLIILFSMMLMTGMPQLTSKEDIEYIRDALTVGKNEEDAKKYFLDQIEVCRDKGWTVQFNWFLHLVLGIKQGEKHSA
The experiment is described as follows: ADP-Glo lipid kinase assay, PIK3CG. The experiment is classed as biochemical. As to conditions: 10 µM compound. (In general: In ADP-Glo the light output rises with the ADP produced.)

In experiment [5] the test system is T47D cells. The experiment is described as follows: Scratch motility assay, T47D. The experiment is classed as cell-based, human. The note with it: IC50 and 2 x IC50; 3, 6, 9 h. The protocol:
Cells were grown to 100 % confluence in 12-well tissue culture plates and the following day a sterile 2 µl pipette tip was used to make a vertical scratch in the cell monolayer of each well and the cells treated with mitomycin C (M4287; Sigma Aldrich) at a final concentration of 10 μg/ml to inhibit proliferation. Cells were subsequently treated with MMV652103 or vehicle and imaged at 0, 3, 6 and 9 h post wound formation and ImageJ v1.50i software was used to calculate the area of the scratch (Schneider et al., 2012[73]). The total areas migrated was determined by subtracting the area for a specific time point from the area measured at 0 h.

Experiment [6] has as its target T3, PI4KB (Homo sapiens, UniProt Q9UBF8).
T3 construct: purchased Carna Biosciences Inc; Invitrogen Corporation
The experiment is described as follows: ADP-Glo lipid kinase assay, PI4KB. The experiment is classed as biochemical. As for the experimental part: (§1) A non-radiometric kinase assay (ADP-Glo™ Assay, Promega, Madison, Wi, USA) was used for measuring the kinase activity of the 2 lipid kinases, phosphatidylinositol 4-kinase beta (encoded by the PI4KB gene) and phosphatidylinositol-4-Phosphate 3-Kinase Catalytic Subunit Type 2 Gamma (encoded by the PIK3C2G gene). All kinase assays were performed in 96-well half-area microtiter plates from Greiner Bio-One (Frickenhausen, Germany) in 25 µl reaction volumes. […] In addition, the assay for PI4KB contained 3 mM MnCl2 and the assay for PIK3C2G contained 3 mM MgCl2. Kinases from external vendors (Carna Biosciences Inc.; Invitrogen Corporation; Millipore Corporation) were expressed, purified and quality-controlled by virtue of the vendors readings. The reaction cocktails were incubated at 30 °C for 60 min. The reaction was stopped with 25 µl ADP-Glo reagent per well. Plates were incubated for 40 min at RT, followed by the addition of 50 µl kinase detection reagent per well and incubation for 60 min at RT. Signal was determined with a microplate luminescence reader (Victor, Perkin Elmer). […]
(§2) For each kinase, the median value of the counts per second (cps) of three wells with complete reaction cocktails, but without kinase, was defined as "low control" (n=3). […] The residual activity (in %) for each well of each row of a particular plate was calculated by using the following formula: […]

Experiment [7] deals with T4, PIK3C2G (Homo sapiens, UniProt O75747).
T4 construct: purchased Carna Biosciences Inc; Invitrogen Corporation
T4 sequence (O75747 whole entry): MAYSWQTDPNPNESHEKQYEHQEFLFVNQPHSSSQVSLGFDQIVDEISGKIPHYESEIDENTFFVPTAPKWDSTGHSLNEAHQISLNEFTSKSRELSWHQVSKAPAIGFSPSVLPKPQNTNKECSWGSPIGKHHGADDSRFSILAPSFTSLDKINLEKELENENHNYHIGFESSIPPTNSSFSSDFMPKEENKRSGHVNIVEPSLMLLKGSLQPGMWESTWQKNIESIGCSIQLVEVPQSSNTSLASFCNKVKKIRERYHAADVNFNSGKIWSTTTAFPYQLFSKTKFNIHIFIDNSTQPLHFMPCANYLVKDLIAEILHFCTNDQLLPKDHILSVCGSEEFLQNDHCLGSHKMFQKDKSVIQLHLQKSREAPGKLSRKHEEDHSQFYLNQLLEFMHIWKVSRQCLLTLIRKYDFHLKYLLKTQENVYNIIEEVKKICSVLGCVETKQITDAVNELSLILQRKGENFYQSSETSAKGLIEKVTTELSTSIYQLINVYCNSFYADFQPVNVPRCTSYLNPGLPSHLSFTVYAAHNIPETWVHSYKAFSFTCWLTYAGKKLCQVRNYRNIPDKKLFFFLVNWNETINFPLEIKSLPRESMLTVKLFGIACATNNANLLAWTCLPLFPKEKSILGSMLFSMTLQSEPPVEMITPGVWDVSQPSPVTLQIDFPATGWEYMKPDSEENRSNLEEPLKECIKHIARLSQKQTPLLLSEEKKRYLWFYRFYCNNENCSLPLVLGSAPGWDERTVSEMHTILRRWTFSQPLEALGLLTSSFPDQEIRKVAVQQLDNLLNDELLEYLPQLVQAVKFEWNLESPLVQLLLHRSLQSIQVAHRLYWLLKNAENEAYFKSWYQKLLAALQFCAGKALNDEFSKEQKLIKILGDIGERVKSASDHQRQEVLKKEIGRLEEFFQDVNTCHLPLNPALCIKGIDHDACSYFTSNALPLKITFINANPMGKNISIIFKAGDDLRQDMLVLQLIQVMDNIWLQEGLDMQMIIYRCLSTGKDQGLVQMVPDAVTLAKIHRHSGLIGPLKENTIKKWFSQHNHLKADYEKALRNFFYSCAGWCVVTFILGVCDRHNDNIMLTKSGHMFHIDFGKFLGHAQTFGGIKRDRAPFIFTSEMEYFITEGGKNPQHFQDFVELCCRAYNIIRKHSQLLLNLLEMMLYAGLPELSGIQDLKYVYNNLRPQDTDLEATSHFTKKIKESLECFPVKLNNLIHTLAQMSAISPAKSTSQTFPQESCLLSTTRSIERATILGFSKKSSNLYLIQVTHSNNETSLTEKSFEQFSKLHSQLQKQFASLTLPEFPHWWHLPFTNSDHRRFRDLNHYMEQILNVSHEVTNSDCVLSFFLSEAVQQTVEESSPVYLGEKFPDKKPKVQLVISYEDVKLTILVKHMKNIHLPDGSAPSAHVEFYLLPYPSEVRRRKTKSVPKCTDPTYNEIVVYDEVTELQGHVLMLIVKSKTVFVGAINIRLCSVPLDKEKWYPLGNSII
The experiment is described as follows: ADP-Glo lipid kinase assay, PIK3C2G. The experiment is classed as biochemical. The protocol:
as §1, §2

Read-outs that look alike come from different tables or passages of the source.

The remaining activity is what remains of the control signal, in per cent. A higher remaining activity goes with much activity left. The term IC50 denotes the midpoint of a concentration-inhibition curve.

T3 sequence (Q9UBF8 whole entry): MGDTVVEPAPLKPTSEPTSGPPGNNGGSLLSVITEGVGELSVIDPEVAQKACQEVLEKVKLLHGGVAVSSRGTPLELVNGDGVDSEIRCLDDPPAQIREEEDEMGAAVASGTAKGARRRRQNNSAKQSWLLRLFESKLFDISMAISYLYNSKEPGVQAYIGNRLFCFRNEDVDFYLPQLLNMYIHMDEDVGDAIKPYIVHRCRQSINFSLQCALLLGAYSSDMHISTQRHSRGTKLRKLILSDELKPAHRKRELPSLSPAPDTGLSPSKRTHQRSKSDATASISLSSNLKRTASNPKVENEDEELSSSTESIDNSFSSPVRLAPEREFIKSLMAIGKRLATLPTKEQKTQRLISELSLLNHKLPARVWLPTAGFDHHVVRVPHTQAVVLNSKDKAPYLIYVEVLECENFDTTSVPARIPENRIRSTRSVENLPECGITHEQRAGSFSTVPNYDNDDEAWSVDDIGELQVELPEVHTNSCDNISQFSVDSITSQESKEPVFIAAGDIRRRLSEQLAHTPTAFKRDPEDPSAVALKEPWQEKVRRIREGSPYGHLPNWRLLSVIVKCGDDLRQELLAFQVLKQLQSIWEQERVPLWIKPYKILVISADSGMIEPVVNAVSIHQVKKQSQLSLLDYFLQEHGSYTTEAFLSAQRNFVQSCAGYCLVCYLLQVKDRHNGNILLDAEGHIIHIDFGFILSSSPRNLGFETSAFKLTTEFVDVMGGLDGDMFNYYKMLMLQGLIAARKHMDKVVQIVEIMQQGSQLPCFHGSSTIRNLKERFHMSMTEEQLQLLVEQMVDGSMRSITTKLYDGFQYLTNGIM

Regarding `CS(=O)(=O)c1ccc(-c2cnc3ccc(-c4cccc(S(C)(=O)=O)c4)nn23)cc1` [MMV652103], in experiment [1], the “number of T47D cell colonies” value is listed as “dose-dependent reduction”. Besides, the remaining activity at 10 µM in experiment [2] came out at 39%; in experiment [4] it was 2%; in experiment [6] (10 µM compound), 23%; in experiment [7] (10 µM compound), 4%. In addition, the half-inhibitory concentration (IC50) in experiment [3] (MCF7, Fig 2C summary, MTT 48 h, read-out: IC50 ± SEM MCF7) is 2200 ± 1150 nM; in experiment [3] (MCF7, MTT, 48 h, read-out: Cytotoxicity assays (MTT) IC50 MCF7), 2200 nM; in experiment [3] (average of MCF7 and T47D, read-out: average IC50 in the ER+ cell lines MCF7 and T47D), 2500 nM; in experiment [6] (ADP-Glo), 1700 nM; in experiment [7] (ADP-Glo), 85 nM. In experiment [3] (selectivity index, MCF12A vs MCF7), the “SI IC50 MCF12A / IC50 MCF7” value was 3.02. The T47D cell migration result in experiment [5] is “significant reduction”.

Values taken from PMC9149975, “The diaryl-imidazopyridazine anti-plasmodial compound, MMV652103, exhibits anti-breast cancer activity” (EXCLI Journal, 2022).
